{
  "source": "paper PMC5618418",
  "about": "“Pharmacokinetics of Jaspine B and Enhancement of Intestinal Absorption of Jaspine B in the Presence of Bile Acid in Rats” (Marine Drugs, 2017)",
  "key": {"[1]": {"experiment": "Apparent partition coefficient between n-octanol and PBS", "type": "physicochemical", "settings": "n-octanol/PBS pH 7.4, 10 mM TC vs absence of TC, 25 °C", "method": "The effect of TC on the apparent partition coefficients (APC) of Jaspine B between aqueous and organic phases was investigated. n-Octanol and phosphate-buffered saline (PBS, pH 7.4) were used as the organic and aqueous phases, respectively, in the partition study. n-Octanol and PBS were saturated with respect to one another prior to use. An equal volume of n-octanol was added to PBS (5 mL each) containing Jaspine B (10 mM) and TC (0, 0.1, 1, 10, or 100 mM) in a screw-capped test tube, and the mixture was vortexed vigorously for 5 min followed by shaking for 2 h at 25 °C in a temperature-controlled water bath. After standing for 1 h at 25 °C in the water bath, the mixture was separated into two phases by centrifugation at 3000 rpm for 10 min. The concentration of Jaspine B in a 50-μL aliquot of aqueous and organic phase was measured. Briefly, 50 μL of sample was added to 250 μL of acetonitrile containing 0.5 ng/mL of berberine. After vortexing for 10 min and centrifugation at 13,200 rpm for 5 min, an aliquot (2 μL) of the supernatant was injected directly into the LC-MS/MS system. The APC was calculated from the concentration ratio of each compound between the octanol and PBS phases."}, "[2]": {"experiment": "in vitro", "type": "in vitro ADME, rat", "method": "For the measurement of the effect of TC on the tight junction of biological membranes, the permeability of 50 μM Lucifer yellow, a marker of paracellular permeation, was measured in the presence of TC (0, 0.1, 1, 10, 100 mM). Prior to the experiment, ileal segments from SD rats (about 20 cm) were placed in the chambers and were submerged in fresh, prewarmed (37 °C) HBSS for 15 min for acclimatization. The chambers were continuously bubbled with carbogen gas (5% CO2/ 95% O2) during the experiment. The experiments began by replacing the HBSS with HBSS containing 50 μM Lucifer yellow and various concentrations of TC on the apical side (A) and adding fresh HBSS to the basal side (B). Aliquots (400 μL) of media were withdrawn from the receiver compartment (B) after 0, 20, 40, 60, and 80 min, and the volume of liquid in the receiver compartment was replenished with fresh, prewarmed HBSS after each sampling. Aliquots (200 μL) of all samples were used for the determination of Lucifer yellow concentration. The fluorescence of Lucifer yellow in the samples was measured using a fluorescence spectrophotometer (Infinite 200 PRO, Tecan, Switzerland) with excitation at 425 nm and emission at 535 nm.\nA to B and B to A permeability of Jaspine B was measured in the presence of TC and rat bile. One mL of HBSS containing 50 μM Jaspine B and 10 mM TC or 20% bile was added to the donor side and 1 mL of preheated fresh HBSS was added to the receiver side. Aliquots (400 μL) of media were withdrawn at 0, 20, 40, 60, and 80 min from the receiver compartment as described above. Aliquots (50 μL) of all samples were stored at −80 °C until analysis.\nAliquots (50 μL) of all samples were added to 250 μL of acetonitrile containing 0.5 ng/mL of berberine. After vortexing for 10 min and centrifugation at 13,200 rpm for 5 min, 2 μL of the supernatant was injected directly into the LC-MS/MS system.\nThe apparent permeability (Papp) of the drug was calculated by dividing the initial drug transport rate (dQ/dt, pmol/min) by the initial drug concentration in the donor compartment of the insert (Co) multiplied by the surface area of the insert (A, cm^2): (3) Papp=dQ/dt×1/ACo"}, "[3]": {"tested_on": "HepG2", "design": "method as in doi:10.5352/JLS.2016.26.12.1392", "settings": "HepG2 hepatoma; cited from earlier work"}},
  "data": [
    {"smiles": "CCCCCCCCCCCCCC[C@@H]1OC[C@H](N)[C@@H]1O", "note": "[Jaspine B]", "values": [
      {"measurement": "increase of partition coefficient", "setting": "[1]", "value": 10, "unit": "fold"},
      {"measurement": "permeability change", "setting": "[2]", "value": "increased the permeability"},
      {"measurement": "Papp at 80 min, 50 μM", "setting": "[2]; Sprague-Dawley, rat", "value": 1.1, "unit": "nm/s"},
      {"measurement": "increase of secretory (B to A) permeability", "setting": "[2]; Sprague-Dawley, rat, 80 min, 50 μM", "value": "approximately 5 fold"},
      {"measurement": "IC50", "setting": "[3]", "value": 5.69, "unit": "µM"}
    ]}
  ]
}
